Results taken from US20130059879A1, “Small Molecule Inhibitors of PFKFB3 and Glycolytic Flux and Their Methods of Use as Anti-Cancer Therapeutics” (UNIVERSITY OF LOUISVILLE RESEARCH FOUNDATION, INC., priority 2010, published 2013).
Where a name gives a salt, the structure may show the parent alone.

test system: not listed separately; assay: Microsomal stability in human liver microsomes; format: in vitro ADME; conditions: 0 min
Procedure: Microsomal stability in vitro in different biologic media (liver microsomes, S9 fraction, hepatocytes) and species is ascertained to evaluate the rate at which a compound undergoes metabolism in the experimental in vitro conditions. Results for some compounds of the invention after a 60 minutes incubation period in human liver microsomes are shown in the Table 6 below. […] Experimental conditions are briefly described here: the stability in human liver microsomes of several compounds was done over […] at 37° C. using pooled mixed gender human liver microsomes. These liver microsomes were prepared at 1.0 mg/ml of microsomal protein in a 100 mM potassium phosphate pH 7.4 buffer with 1 mM NADPH. The media was incubated at 37° C. with the compound in solution in DMSO. The concentration of the compound was followed by LC/MS-MS as a function of time. Samples were assayed at t=0, 15, 30, and 60 minutes. Testosterone was used as a positive control. The same experiment was performed with mouse, rat or dog liver microsomes instead of human liver microsomes.

HLM, Mean metabolized (%)	SMILES
0.0	O=C(c1ccnc(Cl)c1)c1cc2c(ccc3ccccc32)[nH]1 [ACT-PFK-105, (3H-benzo[e]indol-2-yl)-(2-chloro-pyridin-4-yl)-methanone]
0.0	O=C(c1ccccc1)c1cc2c3c(ccc2[nH]1)CCCC3 [ACT-PFK-107, Phenyl-(6,7,8,9-tetrahydro-3H-benzo[e]indol-2-yl)-methanone]
0.0	COc1cc(C(=O)c2cc3c(ccc4ccccc43)[nH]2)ccn1 [ACT-PFK-115, (3H-Benzo[e]indol-2-yl)-(2-methoxy-pyridin-4-yl)-methanone]

same assay, conditions: 60 min incubation, 1.0 mg/ml microsomal protein, 1 mM NADPH, 37° C.

HLM, Mean metabolized (%)	SMILES
51.4	O=C(c1ccnc(Cl)c1)c1cc2c(ccc3ccccc32)[nH]1 [ACT-PFK-105, (3H-benzo[e]indol-2-yl)-(2-chloro-pyridin-4-yl)-methanone]
100.0	O=C(c1ccccc1)c1cc2c3c(ccc2[nH]1)CCCC3 [ACT-PFK-107, Phenyl-(6,7,8,9-tetrahydro-3H-benzo[e]indol-2-yl)-methanone]
99.6	COc1cc(C(=O)c2cc3c(ccc4ccccc43)[nH]2)ccn1 [ACT-PFK-115, (3H-Benzo[e]indol-2-yl)-(2-methoxy-pyridin-4-yl)-methanone]

test system: U937; assay: Cancer cell proliferation, Alamar Blue assay, 72 hours; format: cell-based; conditions: not given
Procedure: (§1) The ability of the compounds described herein to kill or inhibit the proliferation of cancer cells was measured using either the MTT assay, or the Alamar Blue assay, or the Cell Titer Glow® assay using 48 or 72 hours exposure. […] The procedures are briefly described below. Cells of the desired tumor cell line were plated at 2×10^5 cells/ml in 96 well plates. Twice the indicated concentrations of the compounds of the invention were added to cells the following day in an equal volume of media. 72 hours later, cells were lysed and subjected to ATP determination using the CellTiter Glo-Luminescent Cell Viability Assay kit (Promega, Madison, Wis.). Experiments were done in triplicate. When using the MTT assay or the Alamar blue assay, the experimental conditions are essentially similar; at the end of the incubation period, 20 microliters of the MTT solution is added per well and the samples are incubated for an additional four hours, rinsed, and the absorbance at 570 nm measured. […] Table 2 lists the IC50 values for the compounds of the invention in several cell lines including Jurkat, Calu-6, NCI-H82, U937, HCT-116, and MDA-MB-231 cancer cell lines.

IC50 [nM]	SMILES
20	O=C(c1ccncc1)c1cc2c(ccc3ccccc32)[nH]1 [ACT-PFK-095HCl, HCl salt of (3H-Benzo[e]indol-2-yl)-pyridin-4-yl-methanone]

same assay, conditions: Homo sapiens, U-937

IC50 [nM]	SMILES
76	O=C(c1cc2c(ccc3ccccc32)[nH]1)c1ccccc1O [ACT-PFK-099, (3H-Benzo[e]indol-2-yl)-(2-hydroxy-phenyl)-methanone]
2850	O=C(c1ccccc1)c1cc2c3c(ccc2[nH]1)CCCC3 [ACT-PFK-107, Phenyl-(6,7,8,9-tetrahydro-3H-benzo[e]indol-2-yl)-methanone]

Continued, molecule first:

SMILES	IC50 [nM]
O=C(c1ccnc(Cl)c1)c1cc2c(ccc3ccccc32)[nH]1 [ACT-PFK-105, (3H-benzo[e]indol-2-yl)-(2-chloro-pyridin-4-yl)-methanone]	70
COc1cc(C(=O)c2cc3c(ccc4ccccc43)[nH]2)ccn1 [ACT-PFK-115, (3H-Benzo[e]indol-2-yl)-(2-methoxy-pyridin-4-yl)-methanone]	1070

test system: MDA-MB-231; assay: as above; format: cell-based; conditions: Homo sapiens
Procedure: as §1

IC50 [nM]	SMILES
7400	O=C(c1ccnc(Cl)c1)c1cc2c(ccc3ccccc32)[nH]1 [ACT-PFK-105, (3H-benzo[e]indol-2-yl)-(2-chloro-pyridin-4-yl)-methanone]
11600	O=C(c1ccccc1)c1cc2c3c(ccc2[nH]1)CCCC3 [ACT-PFK-107, Phenyl-(6,7,8,9-tetrahydro-3H-benzo[e]indol-2-yl)-methanone]
620	COc1cc(C(=O)c2cc3c(ccc4ccccc43)[nH]2)ccn1 [ACT-PFK-115, (3H-Benzo[e]indol-2-yl)-(2-methoxy-pyridin-4-yl)-methanone]

test system: HCT-116; assay: as above; format: cell-based; conditions: not given
Procedure: as §1

IC50 [nM]	SMILES
850	O=C(c1ccncc1)c1cc2c(ccc3ccccc32)[nH]1 [ACT-PFK-095HCl, HCl salt of (3H-Benzo[e]indol-2-yl)-pyridin-4-yl-methanone]

same assay, conditions: Homo sapiens, HCT-116

IC50 [nM]	SMILES
495	O=C(c1cc2c(ccc3ccccc32)[nH]1)c1ccccc1O [ACT-PFK-099, (3H-Benzo[e]indol-2-yl)-(2-hydroxy-phenyl)-methanone]
> 100000	O=C(c1ccccc1)c1cc2c3c(ccc2[nH]1)CCCC3 [ACT-PFK-107, Phenyl-(6,7,8,9-tetrahydro-3H-benzo[e]indol-2-yl)-methanone]

More lines, now with the values behind:

SMILES	IC50 [nM]
O=C(c1ccnc(Cl)c1)c1cc2c(ccc3ccccc32)[nH]1 [ACT-PFK-105, (3H-benzo[e]indol-2-yl)-(2-chloro-pyridin-4-yl)-methanone]	355
COc1cc(C(=O)c2cc3c(ccc4ccccc43)[nH]2)ccn1 [ACT-PFK-115, (3H-Benzo[e]indol-2-yl)-(2-methoxy-pyridin-4-yl)-methanone]	8200

test system: Jurkat; assay: as above; format: cell-based; conditions: not given
Procedure: as §1

IC50 [nM]	SMILES
440	O=C(c1ccncc1)c1cc2c(ccc3ccccc32)[nH]1 [ACT-PFK-095HCl, HCl salt of (3H-Benzo[e]indol-2-yl)-pyridin-4-yl-methanone]

same assay, conditions: Homo sapiens, Jurkat

IC50 [nM]	SMILES
410	O=C(c1cc2c(ccc3ccccc32)[nH]1)c1ccccc1O [ACT-PFK-099, (3H-Benzo[e]indol-2-yl)-(2-hydroxy-phenyl)-methanone]
6900	O=C(c1ccccc1)c1cc2c3c(ccc2[nH]1)CCCC3 [ACT-PFK-107, Phenyl-(6,7,8,9-tetrahydro-3H-benzo[e]indol-2-yl)-methanone]

Second part, the molecule before the results:

SMILES	IC50 [nM]
O=C(c1ccnc(Cl)c1)c1cc2c(ccc3ccccc32)[nH]1 [ACT-PFK-105, (3H-benzo[e]indol-2-yl)-(2-chloro-pyridin-4-yl)-methanone]	115
COc1cc(C(=O)c2cc3c(ccc4ccccc43)[nH]2)ccn1 [ACT-PFK-115, (3H-Benzo[e]indol-2-yl)-(2-methoxy-pyridin-4-yl)-methanone]	4550

test system: NCI-H82; assay: as above; format: cell-based; conditions: Homo sapiens, NCI-H82, read-out: IC50 NCl-H82
Procedure: as §1

IC50 [nM]	SMILES
680	O=C(c1cc2c(ccc3ccccc32)[nH]1)c1ccccc1O [ACT-PFK-099, (3H-Benzo[e]indol-2-yl)-(2-hydroxy-phenyl)-methanone]
10100	O=C(c1ccccc1)c1cc2c3c(ccc2[nH]1)CCCC3 [ACT-PFK-107, Phenyl-(6,7,8,9-tetrahydro-3H-benzo[e]indol-2-yl)-methanone]

The remaining lines, values behind:

SMILES	IC50 [nM]
O=C(c1ccnc(Cl)c1)c1cc2c(ccc3ccccc32)[nH]1 [ACT-PFK-105, (3H-benzo[e]indol-2-yl)-(2-chloro-pyridin-4-yl)-methanone]	395
COc1cc(C(=O)c2cc3c(ccc4ccccc43)[nH]2)ccn1 [ACT-PFK-115, (3H-Benzo[e]indol-2-yl)-(2-methoxy-pyridin-4-yl)-methanone]	6050

same assay, conditions: read-out: IC50 NCl-H82

IC50 [nM]	SMILES
305	O=C(c1ccncc1)c1cc2c(ccc3ccccc32)[nH]1 [ACT-PFK-095HCl, HCl salt of (3H-Benzo[e]indol-2-yl)-pyridin-4-yl-methanone]

test system: Calu-6; assay: as above; format: cell-based; conditions: not given
Procedure: as §1

IC50 [nM]	SMILES
390	O=C(c1ccncc1)c1cc2c(ccc3ccccc32)[nH]1 [ACT-PFK-095HCl, HCl salt of (3H-Benzo[e]indol-2-yl)-pyridin-4-yl-methanone]

same assay, conditions: Homo sapiens, Calu-6

IC50 [nM]	SMILES
230	O=C(c1cc2c(ccc3ccccc32)[nH]1)c1ccccc1O [ACT-PFK-099, (3H-Benzo[e]indol-2-yl)-(2-hydroxy-phenyl)-methanone]
7250	O=C(c1ccccc1)c1cc2c3c(ccc2[nH]1)CCCC3 [ACT-PFK-107, Phenyl-(6,7,8,9-tetrahydro-3H-benzo[e]indol-2-yl)-methanone]

The next lines start with the molecule.

SMILES	IC50 [nM]
O=C(c1ccnc(Cl)c1)c1cc2c(ccc3ccccc32)[nH]1 [ACT-PFK-105, (3H-benzo[e]indol-2-yl)-(2-chloro-pyridin-4-yl)-methanone]	140
COc1cc(C(=O)c2cc3c(ccc4ccccc43)[nH]2)ccn1 [ACT-PFK-115, (3H-Benzo[e]indol-2-yl)-(2-methoxy-pyridin-4-yl)-methanone]	2180
